For series [1] the following is noted: cited from earlier work.
For series [2] the following is noted: ESRD patient, cited from earlier work.
For series [3] the following is noted: cited from earlier work. This is another data set of the same source.
For series [4] the following is noted: patients with normal renal function; cited from earlier work.

Where two headings read alike, the source gives them in different places.

Turning to `O=S([O-])([O-])=S.[Ca+2]` [Calcium thiosulfate], the “water solubility relative to calcium phosphate” value in series [1] is recorded as “many folds more water soluble than calcium phosphate”.

One may read the half-life as the time needed for the level to fall by half in the phase considered. Regarding `O=S([O-])([O-])=S.[Na+].[Na+]` [sodium thiosulfate], in series [2] (15 min after infusion), the “serum sodium thiosulfate concentration” value is 110 µg/mL. Moreover, the “serum sodium thiosulfate concentration” value in series [2] (after a 4-h hemodialysis session) was 0 µg/mL. Also, the “serum sodium thiosulfate concentration” value in series [2] (before hemodialysis (52 h after administration)) was 1.2 µg/mL. Further, the calculated half life in series [2] was 7.97 h. Moreover, in series [3] (anuric dogs), the elimination route entry is listed as “primarily through the biliary system” and the half-life is 3.98 h. For the same molecule, in series [3] (dogs, during renal failure), the metabolic clearance rate result is “decreased drastically” and the volume of distribution entry is given as “doubled”. In addition, in series [3] (normal and anuric mongrel dogs), the distribution entry is on record as “distributes rapidly throughout the extracellular space”. Moreover, in series [3] (normal dogs), the cleared renally is over 98% and the half-life was 0.78 h. Also, the serum half-life in series [4] is 0.25 h. In addition, for the setting “hemodialysis dialysate”, the “solubility in the dialysis solution” value was “soluble”. The “solubility in peritoneal dialysis solutions” value (peritoneal dialysis solutions) is “soluble”. The solubility in water result in series [1] is on record as “soluble in water”.

These data come from patent US20090304600A1 (priority 2008, published 2009).
